From article PMC10952572, “Improved PIEZO1 agonism through 4‐benzoic acid modification of Yoda1” (British Journal of Pharmacology, 2023)

Assays:
[1] = target: T1, mPIEZO1 (Mus musculus, UniProt E2JF22); assay: Pre-treatment with analogue before Yoda1 stimulus, Ca2+ assay in mPIEZO1-TREx cells; format: cell-based; details: for 0.5 μM Yoda1-evoked peak ΔCa2+i (ΔF340/380), median fold difference compared to DMSO pretreatment: mPIEZO1-TREx, 10 μM compound 30 min pretreatment before 0.5 μM Yoda1
T1 construct: expressed in transfected cells
T1 sequence (E2JF22 whole entry): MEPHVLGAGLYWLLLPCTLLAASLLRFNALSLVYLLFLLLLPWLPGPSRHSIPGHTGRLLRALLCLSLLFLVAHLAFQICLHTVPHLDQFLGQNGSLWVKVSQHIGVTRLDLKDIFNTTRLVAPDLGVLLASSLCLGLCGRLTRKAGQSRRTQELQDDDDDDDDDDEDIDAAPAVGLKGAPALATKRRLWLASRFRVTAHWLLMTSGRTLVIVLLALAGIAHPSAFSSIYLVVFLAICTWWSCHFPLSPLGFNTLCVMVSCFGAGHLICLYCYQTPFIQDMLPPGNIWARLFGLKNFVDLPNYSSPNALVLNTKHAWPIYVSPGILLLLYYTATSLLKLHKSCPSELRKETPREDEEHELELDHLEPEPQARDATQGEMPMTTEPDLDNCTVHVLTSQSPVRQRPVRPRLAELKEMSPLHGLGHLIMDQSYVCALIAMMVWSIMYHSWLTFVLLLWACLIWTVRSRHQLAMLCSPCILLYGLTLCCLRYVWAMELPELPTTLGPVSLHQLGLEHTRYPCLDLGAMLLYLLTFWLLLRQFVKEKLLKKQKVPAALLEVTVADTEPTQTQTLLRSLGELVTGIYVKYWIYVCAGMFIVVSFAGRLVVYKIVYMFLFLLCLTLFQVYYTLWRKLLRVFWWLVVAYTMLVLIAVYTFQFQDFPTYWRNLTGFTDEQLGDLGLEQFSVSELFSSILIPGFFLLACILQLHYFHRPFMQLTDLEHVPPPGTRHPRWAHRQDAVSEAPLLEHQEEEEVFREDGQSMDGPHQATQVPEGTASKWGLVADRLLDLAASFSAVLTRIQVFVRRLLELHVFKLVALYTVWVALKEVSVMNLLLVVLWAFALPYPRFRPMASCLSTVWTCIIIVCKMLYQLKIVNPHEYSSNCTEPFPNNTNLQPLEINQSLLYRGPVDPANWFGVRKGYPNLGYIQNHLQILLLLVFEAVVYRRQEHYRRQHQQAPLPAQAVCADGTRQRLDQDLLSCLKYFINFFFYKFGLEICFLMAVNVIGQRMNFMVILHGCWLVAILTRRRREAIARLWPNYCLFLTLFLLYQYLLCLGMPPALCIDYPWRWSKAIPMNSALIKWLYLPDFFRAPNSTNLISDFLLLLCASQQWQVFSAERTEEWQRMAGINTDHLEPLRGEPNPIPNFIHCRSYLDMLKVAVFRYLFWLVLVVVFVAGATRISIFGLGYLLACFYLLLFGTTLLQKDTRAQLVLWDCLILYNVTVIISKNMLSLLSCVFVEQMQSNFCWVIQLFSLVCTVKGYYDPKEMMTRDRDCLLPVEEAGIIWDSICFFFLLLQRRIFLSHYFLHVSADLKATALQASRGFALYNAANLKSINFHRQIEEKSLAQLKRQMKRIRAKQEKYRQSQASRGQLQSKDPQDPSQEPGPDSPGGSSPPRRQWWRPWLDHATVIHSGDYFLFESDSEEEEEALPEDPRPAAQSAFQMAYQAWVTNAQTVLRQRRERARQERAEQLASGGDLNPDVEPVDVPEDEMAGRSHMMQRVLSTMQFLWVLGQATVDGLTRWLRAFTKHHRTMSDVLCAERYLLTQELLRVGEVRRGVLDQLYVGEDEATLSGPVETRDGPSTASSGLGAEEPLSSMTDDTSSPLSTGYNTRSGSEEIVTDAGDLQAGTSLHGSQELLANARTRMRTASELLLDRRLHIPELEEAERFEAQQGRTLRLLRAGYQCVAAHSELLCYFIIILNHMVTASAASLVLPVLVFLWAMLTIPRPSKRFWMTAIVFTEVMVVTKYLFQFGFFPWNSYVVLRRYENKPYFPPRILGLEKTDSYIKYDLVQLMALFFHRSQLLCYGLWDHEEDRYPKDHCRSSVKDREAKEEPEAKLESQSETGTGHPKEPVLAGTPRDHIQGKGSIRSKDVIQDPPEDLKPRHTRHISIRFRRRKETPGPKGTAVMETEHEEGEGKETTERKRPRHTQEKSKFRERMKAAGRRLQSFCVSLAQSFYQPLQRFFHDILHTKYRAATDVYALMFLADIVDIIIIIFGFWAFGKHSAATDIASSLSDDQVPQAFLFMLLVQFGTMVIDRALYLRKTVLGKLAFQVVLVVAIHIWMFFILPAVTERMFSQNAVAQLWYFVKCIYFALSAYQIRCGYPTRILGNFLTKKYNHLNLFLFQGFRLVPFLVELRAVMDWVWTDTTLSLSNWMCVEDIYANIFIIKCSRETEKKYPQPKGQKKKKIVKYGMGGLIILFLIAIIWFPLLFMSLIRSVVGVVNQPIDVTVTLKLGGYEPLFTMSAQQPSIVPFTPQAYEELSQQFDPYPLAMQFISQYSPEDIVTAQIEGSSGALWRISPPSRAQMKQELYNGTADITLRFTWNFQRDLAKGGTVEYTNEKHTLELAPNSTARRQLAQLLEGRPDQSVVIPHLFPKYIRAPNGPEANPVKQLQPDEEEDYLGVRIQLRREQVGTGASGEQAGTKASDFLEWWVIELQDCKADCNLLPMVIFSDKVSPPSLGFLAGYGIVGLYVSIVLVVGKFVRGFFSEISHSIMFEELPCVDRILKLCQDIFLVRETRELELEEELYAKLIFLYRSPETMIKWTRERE

[2] = target: T2, human TRPC5 (Homo sapiens, UniProt Q9UL62); assay: Intracellular Ca2+ measurement in hTRPC5-TREx cells; format: cell-based; details: 10 μM
T2 construct: expressed in transfected cells
T2 sequence (Q9UL62 1-973): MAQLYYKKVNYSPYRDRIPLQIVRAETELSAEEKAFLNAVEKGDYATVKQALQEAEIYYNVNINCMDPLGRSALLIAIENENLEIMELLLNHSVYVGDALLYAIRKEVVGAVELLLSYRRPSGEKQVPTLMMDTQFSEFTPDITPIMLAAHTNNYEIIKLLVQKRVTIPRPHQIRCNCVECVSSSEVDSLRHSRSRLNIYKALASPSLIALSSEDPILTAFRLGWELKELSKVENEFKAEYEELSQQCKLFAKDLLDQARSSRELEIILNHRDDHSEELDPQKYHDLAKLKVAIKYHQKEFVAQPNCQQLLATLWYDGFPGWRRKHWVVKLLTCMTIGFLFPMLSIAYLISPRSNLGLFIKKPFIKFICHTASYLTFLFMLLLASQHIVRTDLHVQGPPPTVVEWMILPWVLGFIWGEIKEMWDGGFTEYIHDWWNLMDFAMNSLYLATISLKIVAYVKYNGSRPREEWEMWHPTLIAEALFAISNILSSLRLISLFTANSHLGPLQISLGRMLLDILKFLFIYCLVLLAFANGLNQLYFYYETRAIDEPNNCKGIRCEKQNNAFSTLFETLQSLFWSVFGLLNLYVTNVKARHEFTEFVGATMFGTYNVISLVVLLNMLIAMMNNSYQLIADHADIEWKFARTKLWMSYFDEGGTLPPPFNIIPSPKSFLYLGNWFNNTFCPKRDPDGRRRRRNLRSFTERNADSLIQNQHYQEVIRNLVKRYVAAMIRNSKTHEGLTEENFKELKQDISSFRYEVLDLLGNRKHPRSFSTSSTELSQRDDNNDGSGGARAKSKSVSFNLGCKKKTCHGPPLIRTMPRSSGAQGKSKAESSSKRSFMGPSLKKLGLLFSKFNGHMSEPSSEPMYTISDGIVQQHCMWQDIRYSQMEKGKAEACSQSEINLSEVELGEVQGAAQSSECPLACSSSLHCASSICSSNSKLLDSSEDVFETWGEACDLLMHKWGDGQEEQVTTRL
Protocol: HEK T‐REx™ 293 cells stably expressing tetracycline‐regulated human TRPC5 have been described previously (Zeng et al., [2004]). For the TRPC5‐expressing cells, selection was achieved by including 5 μg·ml^−1 blasticidin and 400 μg·ml^−1 zeocin in the cell medium. To induce expression, cells were incubated with 1 μg·ml^−1 tetracycline for 24 h prior to experiments. These cells are referred to as hTRPC5‐TREx.
HEK 293‐TREx cells and their stably transfected derivatives or transiently transfected HEK 293 or HeLa cells were seeded at a density of 7.5 × 10^4 cells per well into poly‐D‐lysine‐coated 96‐well plates. The plates were either commercially pre‐coated with poly‐D‐lysine (Greiner Bio‐One #655946) or (Greiner Bio‐One #655090) were coated in‐house with 35 μl of a 10 μg·ml^−1 poly‐D‐lysine (Bio‐Techne, Cultrex # 3439‐100‐01) in sterile deionised water per well for at least 24 h and rinsed three times with 100 μl per well sterile D‐PBS before addition of cells. HUVECs were seeded into tissue culture‐treated 96‐well plates (Greiner Bio‐One #655090) at a density of either 2.5 × 10^4 cells 24 h before experimentation or 1.25 × 10^4 cells 48 h before experimentation. Cells were incubated with 2 μM Fura‐2‐AM (Molecular Probes™) in the presence of 0.01% (wt./vol.) pluronic F127 (Sigma‐Aldrich #P2443) in standard bath solution (SBS) for 1 h at 37°C. Cells were washed with SBS for 30 min at room temperature. Alternatively, if inhibitors were being tested, these were added at this time, immediately following a wash in SBS. (−)‐Englerin A (Akbulut et al., [2015]) was used in SBS containing 0.01% pluronic acid as a dispersing agent to minimise aggregation of compound. Unless otherwise stated, the final concentration of DMSO was 0.2% (vol./vol). […] Measurements were made at room temperature on a 96‐well fluorescence plate reader (FlexStation 3, Molecular Devices, Sunnyvale, CA, USA) controlled by SoftMax Pro software v7.0.3. […]

[3] = In-house aqueous solubility in universal aqueous buffer; format: physicochemical; details: for Solubility in aqueous buffer relative to Yoda1: universal aqueous buffer pH 7.4
Protocol: Standard curves for each test compound were constructed. DMSO‐dissolved test compounds were added to universal aqueous buffer (45 mM ethanolamine, 45 mM KH2PO4 and 45 mM KOAc, pH 7.4): acetonitrile 80:20 (298.5 μl) at a final DMSO concentration of 0.5%. Samples were incubated at room temperature with 300 rpm shaking for 30 min; 200 μl of each well was transferred to a 96‐well polypropylene V‐bottomed collection plate, and absorbance readings were taken at 250–500 nm in 10 nm increments. Thus, the λ max was identified at which concentration versus absorbance was plotted to provide standard curves.
After filtration through hydrophilic PTFE 0.2 μm filters, 160 μl sample was transferred to wells of a 96‐well polypropylene V‐bottomed collection plate and 40 μl acetonitrile was added to each well. Absorbance readings were taken at 250–500 nm in 10 nm increments. Solubility was calculated at the appropriate λ max with reference to the standard curve.

Compound | 0.5 μM Yoda1-evoked peak ΔCa2+i (ΔF340/380), median fold difference compared to DMSO pretreatment [1] | Inhibition of the action of Yoda1 ([1]; mPIEZO1 channels, 10 μM for 30 min prior to Yoda1) | Ca2+ response in cells expressing TRPC5 in place of PIEZO1 [2] | Solubility in aqueous buffer relative to Yoda1 [3] | solubility at 1.5 h ([3]; universal aqueous buffer, pH 7.4, aqueous buffer, kinetic from dmso stock, lower limit of detection 0.1 µM, read-out: Estimated solubility in universal aqueous buffer) [µM]
O=C(O)c1ccccc1-c1nnc(SCc2c(Cl)cccc2Cl)s1 [KC157] | +1.2 fold | failed to inhibit the action of Yoda1 |  |  | 
O=C(O)c1ccc(-c2nnc(SCc3c(Cl)cccc3Cl)s2)cc1 [KC159] | −2.1 fold |  | fail to evoke responses | at least 160 times | 
O=C([O-])c1ccc(-c2nnc(SCc3c(Cl)cccc3Cl)s2)cc1.[K+] [KC289] | −2.8 fold |  | fail to evoke responses | at least 160 times | 
Clc1cccc(Cl)c1CSc1nnc(-c2cnccn2)s1 [Yoda1, 2‐[5‐[[(2,6‐dichlorophenyl)methyl]thio]‐1,3,4‐thiadiazol‐2‐yl]pyrazine] |  |  | fail to evoke responses |  | < 0.1
